# Like-named read-outs stand apart in the source and are kept apart here.
# What was measured:
# [1] = test system: L. major strain NIH S intramacrophage amastigotes; assay: Intramacrophage antileishmanial resazurin assay; format: cell-based, Leishmania major; settings: L. major; for SI5: SI5 = IC50 Vero/static IC50 amastigote; for SI6: SI6 = IC50 Vero/cidal IC50 amastigote; for SpI3: SpI3 = IC50 promastigote/static IC50 amastigote; for SpI4: SpI4 = IC50 promastigote/cidal IC50 amastigote
# [2] = test system: T. brucei brucei strain GUTat3.1; assay: Antitrypanosomal assay; format: cell-based, Trypanosoma brucei brucei; settings: for SI Tbb GuTat3.1: IC50 of MDBK/IC50 of trypanosome; for IC50: read-out: Antitrypomastigote activity IC50 ± SD Tbb GuTat3.1
# [3] = test system: L. major strain NIH S promastigotes; assay: Antipromastigote resazurin assay; format: cell-based, Leishmania major; settings: for AG (activity gain): IC50 (1)/IC50 (compd.), L. major promastigotes; for SI4: SI4 = IC50 Vero/IC50 promastigote, L. major; for IC50: Leishmania major, read-out: Antipromastigote activity IC50
# [4] = Animal cytotoxicity, CCK-8 assay; format: cell-based, bovine; settings: bovine, MDBK (Madin-Darby bovine kidney) cells
# General = format: cell-based; settings: African green monkey, Vero cells (monkey kidney epithelial cells)
# Trypanosoma spp. = assay: Antitrypanosomal assay, several species; format: cell-based; settings: read-out: IC50 against several Trypanosoma spp.
# [5] = test system: T. brucei gambiense strain IL1922; assay: Antitrypanosomal assay; format: cell-based, Trypanosoma brucei gambiense; settings: IC50 of MDBK/IC50 of trypanosome
# [6] = test system: L. donovani strain 9515 promastigotes; assay: Antipromastigote resazurin assay; format: cell-based, Leishmania donovani; settings: for AG (activity gain): IC50 (1)/IC50 (compd.), L. donovani promastigotes; for SI1: SI1 = IC50 Vero/IC50 promastigote, L. donovani; for IC50: Leishmania donovani, read-out: Antipromastigote activity IC50
# [7] = test system: T. brucei rhodesiense strain IL1501; assay: Antitrypanosomal assay; format: cell-based, Trypanosoma brucei rhodesiense; settings: IC50 of MDBK/IC50 of trypanosome
# [8] = Host cell toxicity, resazurin assay; format: cell-based; settings: human
# MDBK cells = assay: Animal cytotoxicity, CCK-8 assay; format: cell-based, bovine; settings: read-out: Cytotoxicity IC50 ± SD MDBK; MDBK cells; three biological replicates
# [9] = test system: T. equiperdum strain IVM-t1; assay: Antitrypanosomal assay; format: cell-based, Trypanosoma equiperdum; settings: for SI Teq IVM-t1: IC50 of MDBK/IC50 of trypanosome
# [10] = test system: T. congolense strain IL3000; assay: Antitrypanosomal assay; format: cell-based, Trypanosoma congolense; settings: IC50 of MDBK/IC50 of trypanosome
# [11] = Solubility observed during sample preparation and screening; format: physicochemical; settings: aqueous screening medium
IC50 (General) [µM],Solubility in aqueous screening medium [11],Structure (SMILES),SI5 [1],SI6 [1],SpI3 [1],SpI4 [1],SI Tbb GuTat3.1 [2],IC50 ([2]; Trypanosoma brucei) [µM],AG (activity gain) [3],SI4 [3],IC50 [4] [µM],IC50 (Trypanosoma spp.) [µM],SI Tbg IL1922 [5],AG (activity gain) [6],SI1 [6],SI Tbr IL1501 [7],IC50 [8] [µM],SI Teq IVM-t1 [9],SI Tc IL3000 [10],IC50 [3] [µM],other results
,,"CC(=O)NCC(=O)O.CC(=O)NCC(=O)O.N=C(N)c1ccc(N=NNc2ccc(C(=N)N)cc2)cc1 [Diminazine aceturate, diminazene aceturate, reference compound]",,,,,5263,,,,,,33333,,,9091,,16340,4000,,"IC50 ([2]; three biological replicates): 0.068 µM; IC50 (MDBK cells): > 355 µM; IC50 ([9]; read-out: Antitrypomastigote activity IC50 ± SD Teq IVM-t1, three biological replicates): 0.022 ± 0.002 µM"
15.2 ± 0.32,poor solubility,"O=C1NC(=S)S/C1=C\c1c[nH]c2ccc([N+](=O)[O-])cc12 [3a, (Z)-5-[(5-Nitro-1 H-indol-3-yl)methylene]-2-thioxothiazolidin-4-one]",25,27,166,175,1,33.7 ± 5.01,,,31.6 ± 1.67,,1,,,0,> 100,1,1,> 100,IC50 [6]: > 100 µM
13.5 ± 0.8,poor solubility,"C#CCn1cc(/C=C2\SC(=S)NC2=O)c2cc([N+](=O)[O-])ccc21 [3b, (Z)-5-{[5-Nitro-1-(prop-2-yn-1-yl)-1 H-indol-3-yl]methylene}-2-thioxothiazolidin-4-one]",,,,,,> 78,0.9,0.2,> 312,20 to 40,,0.7,0.2,4,,,,56.8 ± 5.57,IC50 [6]: 68.7 ± 6.55 µM

Structure (SMILES),IC50 (General) [µM],Solubility in aqueous screening medium [11],SI5 [1],SI6 [1],SpI3 [1],SpI4 [1],SI Tbb GuTat3.1 [2],IC50 ([2]; Trypanosoma brucei) [µM],AG (activity gain) [3],SI4 [3],IC50 [4] [µM],IC50 (Trypanosoma spp.) [µM],SI Tbg IL1922 [5],AG (activity gain) [6],SI1 [6],SI Tbr IL1501 [7],IC50 [8] [µM],SI Teq IVM-t1 [9],SI Tc IL3000 [10],IC50 [3] [µM],other results
"O=Cc1cn(Cc2ccc(F)cc2)c2ccc([N+](=O)[O-])cc12 [2e, 1-(4-Fluorobenzyl)-5-nitro-1 H-indole-3-carbaldehyde]",> 100,,8,8,7,8,22,15 ± 8.48,0.5,1,> 335,20 to 40,15,0.5,1,4,> 100,,,,

# Reference: publication PMC11901381 (Future Medicinal Chemistry, 2025)
